One data set deals with patients. The following applies: in vivo; cited from earlier work.
For data set [1], the system named is patients with non-infectious uveitis. Put plainly: Phase 1/2 open-label safety and tolerability study of TA administered to the suprachoroidal space. Type of data set: in vivo, human. The procedure: A clinical trial was designed to evaluate the safety and tolerability of a single injection of TA (triamcinolone acetonide administered as TRIESCENCE™) into the SCS in patients diagnosed with non-infectious uveitis.
Each mL of the sterile, aqueous suspension of TRIESENCE™ provides […] of triamcinolone acetonide, with sodium chloride for isotonicity, 0.5% (w/v) carboxymethylcellulose sodium and 0.015% polysorbate 80. It also contains potassium chloride, calcium chloride (dihydrate), magnesium chloride (hexahydrate), sodium acetate (trihydrate), sodium citrate (dihydrate) and water for injection. Sodium hydroxide and hydrochloric acid may be present to adjust pH to a target value 6-7.5.
The primary purpose of this trial was to evaluate the overall safety and tolerability of treating uveitis patients (non-infectious uveitis—intermediate, posterior or pan-uveitis) by administering a triamcinolone into the SCS via a single suprachoroidal injection. Eligibility criteria include adult patients with non-infectious uveitis experiencing either macular edema or vitreous haze, a common complication of uveitis. This was in order to determine whether SCS administration of TA could improve patient vision through reducing the effects of either condition. For inclusion in the trial, patients must have IOP (intra-ocular pressure) of no greater than 22 mmHg
Each patient enrolled received a single SCS microinjection of 4.0 mg (100 μL) of triamcinolone acetonide of day 1. Patients returned for a follow-up examination on the day after the injection and then for eight additional evaluations at weeks 1, 2, 4, 8, 12, 16, 20 and 26 following the treatment. Patients may receive other treatment at any time during the trial with any accepted therapy based on their physician's best medical judgment, if their condition deteriorates or if the physician otherwise determines it to be advisable. In the event a patient received other treatment, the patient was followed for the duration of the trial for safety purposes, but efficacy measures were no longer considered thereafter.
Patients received the single SCS injection 4 mm posterior to limbus and received an ultrasound assessment of scleral thickness immediately after injection.
Endpoints. The main safety endpoint was changes from baseline in intraocular pressure (TOP). Also assessed was an efficacy endpoint relating to changes in best-corrected visual acuity, or BCVA, as well as changes in excess retinal thickness.

The test system of data set [2] is porcine model of acute posterior uveitis (intravitreal LPS). Put plainly: Porcine model of acute uveitis: ocular histopathology. Type of data set: in vivo, pigs.
Data set [3] shares this test system. Put plainly: Porcine model of acute uveitis: wide-field ocular fundus digital photography. The following applies: 72 hours. Type of data set: in vivo, pigs. The procedure: Twenty four hours after the induction of acute uveitis by intraocular lipopolysaccharide (LPS) injection (Day 0) into the vitreous, 50 μL of balanced salt solution (BSS, Group 1) or triamcinolone (CLS-TA) (2 mg, Group 3) was injected into the suprachoroidal space (SCS). In Groups 2 and 4, oral prednisone (1 mg/kg/day, Group 2 or 0.1 mg/kg/day, Group 4) was dosed on Day 0, and repeated every 24 hours until euthanasia on day 3. Eyes were examined every 24 hours, which included measuring inflammation scores (Modified Hackett-McDonald) and intraocular pressure (TOP) until euthanasia 3 days after initiation of treatment. Safety assessments and histopathology were performed on all eyes. Electroretinography and wide-field fundus photography was performed at -24 hours, time 0 (before treatment) and on Day 3. Histopathology was performed on eyes after euthanasia. Wide-field Ocular Fundus Digital Photography. With the pigs anesthetized at times -24, 0 and 72 hours, and pupils dilated with tropicamide 1%, the ocular fundus was photographed with standardized illumination and focus using a wide-field digital imaging system ([…], Clarity Medical Systems, Pleasanton, Calif.).

Data set [4] has the same test system. Put plainly: Porcine model of acute uveitis: intraocular pressure (TonoVet). Conditions: Day 3, low dose 0.1 mg/kg/day PO, P<0.0065. Type of data set: in vivo, pigs. The procedure:
Twenty four hours after the induction of acute uveitis by intraocular lipopolysaccharide (LPS) injection (Day 0) into the vitreous, 50 μL of balanced salt solution (BSS, Group 1) or triamcinolone (CLS-TA) (2 mg, Group 3) was injected into the suprachoroidal space (SCS). In Groups 2 and 4, oral prednisone (1 mg/kg/day, Group 2 or 0.1 mg/kg/day, Group 4) was dosed on Day 0, and repeated every 24 hours until euthanasia on day 3. Eyes were examined every 24 hours, which included measuring inflammation scores (Modified Hackett-McDonald) and intraocular pressure (TOP) until euthanasia 3 days after initiation of treatment. Safety assessments and histopathology were performed on all eyes. Electroretinography and wide-field fundus photography was performed at −24 hours, time 0 (before treatment) and on Day 3. Histopathology was performed on eyes after euthanasia.
Treatment. […]
Intraocular Pressure. Intraocular pressure (TOP) was measured with the pigs awake and hand restrained at −144, −96, −24, 0, 24, 48, and 72 hours (see FIG. 1) using a TonoVet Tonometer (iCare, Finland). […] After the six measurements, the mean IOP was shown on the display providing the IOP that was recorded.
Data and Statistical Analysis. […] Results and probabilities were calculated using computerized statistical software (JMP 10, SAS Inc. Cary, N.C.).

For data set [5] the test system is unchanged. Put plainly: Porcine model of acute uveitis: modified Hackett-McDonald ocular inflammation score. Type of data set: in vivo, pigs.

“Also recorded” adds a separate entry of the source.

As to `CC1(C)O[C@@H]2C[C@H]3[C@@H]4CCC5=CC(=O)C=C[C@]5(C)[C@@]4(F)[C@@H](O)C[C@]3(C)[C@]2(C(=O)CO)O1` [TA, triamcinolone acetonide], the “patients with cataracts and increases in IOP levels” value in the data set with patients is 20-60%. The “patients with meaningful improvements in BCVA” value in data set [1] (26 weeks after single SCS injection of TA on Day 1) was “Four of the eight patients”. Further, in data set [1] (26 weeks after single SCS injection, four of the eight patients), the “gain in BCVA” value is listed as “about 3 lines”. In addition, the “decrease in retinal thickness (OCT), SCS injection compared to sub-tenon injection” value in data set [1] (one patient, bilateral uveitis, 4 mg TA SCS in one eye, 20 mg TA sub-tenon in the other eye) is listed as “greater decrease in retinal thickness”. The “OCT appearance of eye treated with TA via suprachoroidal injection vs Ozurdex treated eye” value in data set [1] (one patient, bilateral uveitis, four to six weeks after treatment) is given as “looks better than the intravitreally Ozurdex treated eye”. Further, in data set [1] (seven patients, single TA injection into the SCS), the “average reduction in CME” value was “about 20%”. Moreover, the deaths entry in data set [1] (single SCS injection 4.0 mg (100 μL) TA, eight patients) was “No deaths”. Besides, in data set [1] (week 26, single TA injection into the SCS, seven patients with macular edema), the “mean reduction in macular edema (retinal thickness)” value was “over 100 microns”.

With `C[C@]12C=CC(=O)C=C1CC[C@@H]1[C@@H]2C(=O)C[C@@]2(C)[C@H]1CC[C@]2(O)C(=O)CO` [prednisone], the “mean histologic score of the posterior segment compared with low dose oral prednisone (Group 4)” value in data set [2] (high dose 1 mg/kg/day PO, P<0.013) is “lower than the mean score of eyes treated with low dose oral prednisone”. For the same compound, the “mean histologic score of the anterior segment compared with saline (Group 1)” value in data set [2] (oral 0.1 mg/kg/day (Group 4)) and in data set [2] (oral 1 mg/kg/day (Group 2)) was “not significantly different than Group 1” throughout. In addition, the results for the wide-field fundus images result in data set [3] (high dose 1 mg/kg/day PO) and in data set [3] (low dose 0.1 mg/kg/day PO) were “near pre-treatment appearance” and “only slightly improved over vehicle treated eyes”, respectively. In data set [4], the “mean IOP compared with the other groups” value was “significantly lower than Groups 1, 2, and 3; also recorded: significantly lower IOP than all other groups”. Further, the “mean cumulative inflammation score compared with Group 1 (BSS)” value in data set [5] (Day 3 (72 hours), high dose 1 mg/kg/day PO, P<0.034) is reported as “significantly lower”. In data set [5] (any treatment time, low dose 0.1 mg/kg/day PO), the “mean cumulative inflammation score compared with saline treated eyes” value is listed as “not significantly different than saline treated eyes”. The “reduction of ocular inflammation relative to low dose prednisone” value in data set [5] (high dose 1 mg/kg/day PO) is recorded as “more effective than low dose prednisone”. In addition, the “time to reduction of inflammation” value in data set [5] (high dose 1 mg/kg/day PO) is “three days”.

These data come from patent US20180042765A1, “METHODS AND DEVICES FOR TREATING POSTERIOR OCULAR DISORDERS” (CLEARSIDE BIOMEDICAL, INC., priority 2014, published 2018).
